Experimental data: patent publication US20240299562A1 (priority 2020, published 2024)
Like-named read-outs stand apart in the source and are kept apart here. Where a SMILES comes first, the peptide text is derived from it.

What was measured:
[1] = system: U87 MG glioblastoma cells subcutaneously implanted in nude NMRI mice; assay: In vivo activity of PhAc-ALLP-Dox on U87 MG glioblastoma xenograft; design: species or system mouse; conditions: 154 mg/kg iv, once per week
Protocol: The in vivo efficacy of PhAc-ALLP-Dox was tested in a mouse GBM model. U87 MG glioblastoma cells were subcutaneously (SC) implanted in nude NMRI mice. In total, 32 adult (9-10 weeks old) nude female NMRI mice (Janvier, France) were subjected to SC tumor cell grafting in the right flank. In total, 5×10^6 U87 MG cells resuspended in PBS plus Matrigel (1:1) were injected in 200 uL final volume. As soon as the tumors were palpable and reached the volume of 200 mm3 the treatment was started. At day zero, mice were randomly divided into 4 groups, based on the tumor volume, in order to have the following experimental sub-cohorts: • control group receiving the vehicle (PBS pH7.2) with a dose of 5 ml/kg, intravenously (iv), once per week (QW); • PhAc-ALLP-Dox (30 mg/kg iv, QW); • PhAc-ALGP-Dox (154 mg/kg iv, QW); • Dox (5 mg/kg iv, QW).
Treatments were performed once per week for a total of four tail vein administrations/injections (on days 1, 7, 14 and 21). One extra week of observation followed the active treatment phase. During the experiment, tumor volume was measured two times a week and was assessed three-dimensionally with a digital caliper (Mitutoyo, Illinois) using the following formula:
V=4/3π×[(d/2)^2×(D/2)], where d is the minor tumor axis and D is the major tumor axis.

[2] = WST-1 cell viability, normal HME-1 cells; assay type: cell-based, human; conditions: human; HME-1 normal cells; 72 hrs, WST-1 (Table 2); read-out: Maximal efficacy, cytotoxicity (%) at 100 μM
Protocol: (§1) All commercial cell lines were purchased at ATCC (LGC Standards SARL, France). Cells were seeded in 96-well plates according to their optimal seeding density, varying between 5.000 and 10.000 cells/well. After attachment overnight, 10-point serial titrations (1:5) were prepared in their equivalent complete media as recommended by ATCC, starting from the 10 mM stock solutions. For doxorubicin comprising prodrugs dilutions started from 100 μM, while for the parent compound doxorubicin dilutions started at 10 μM. […] Seventy-two hours later, compounds were removed together with the supernatants and cells were washed once with PBS to remove excess drugs.
(§2) The WST-1 assay for cell proliferation and viability (Roche, Switzerland) was performed according to manufacturer's protocol. Absorbances were measured at 4 hrs using a Perkin Elmer Ensight multiplate reader, equipped with Kaleido 2.0 software (Perkin Elmer, USA). Cell viability was expressed as a percentage compared to non-treated cells. Absolute IC50 values were extrapolated from a non-linear fitting following the Sigmoidal-4PL regression method using Graphpad Prism 7.0. Likewise, maximal efficacy was determined as 100% minus the cell viability determined when cells are incubated in the presence of a compound. For instance, if 20% of the cells survive incubation in the presence of a compound, then the maximal efficacy of that compound is 100%-20%=80%.
(§3) Selectivity indices (SI) were defined as the ratio of the concentration of drug required to kill 50% of the cells in normal (control, non-cancer) cells, divided by the concentration required to exert the same efficacy in tumor cells: SI=IC50 (control cell)/IC50 (cancer cell), or SI=^HME-1IC50/cancer IC50.

HME-1 cells = assay: WST-1 cell viability, normal HME-1 cells; assay type: cell-based, human; conditions: for IC50: HME-1 normal cells, 72 hrs continuous drug exposure, WST-1 (Table 1), read-out: Absolute IC50
Protocol: as §1, §2, §3

A2058 cells = assay: WST-1 cell viability, A2058 melanoma cells; assay type: cell-based
Protocol: as §1, §2, §3

MDA-MB-231 cells = assay: WST-1 cell viability, MDA-MB-231 triple negative breast cancer cells; assay type: cell-based
Protocol: as §1, §2, §3

MDA-MB-468 cells = assay: WST-1 cell viability, MDA-MB-468 triple negative breast cancer cells; assay type: cell-based
Protocol: as §1, §2, §3

U-87 MG cells = assay: WST-1 cell viability, U-87 MG glioblastoma cells; assay type: cell-based
Protocol: as §1, §2, §3

LS 174T cells = assay: WST-1 cell viability, LS 174T colorectal cancer cells; assay type: cell-based
Protocol: as §1, §2, §3

A2780 cells = assay: WST-1 cell viability, A2780 ovarian cancer cells; assay type: cell-based
Protocol: as §1, §2, §3

NCI-1299 cells = assay: WST-1 cell viability, NCI-H1299 lung cancer cells; assay type: cell-based
Protocol: as §1, §2, §3

A-172 cells = assay: WST-1 cell viability, A-172 glioblastoma cells; assay type: cell-based
Protocol: as §1, §2, §3

A2780 Cp cells = assay: WST-1 cell viability, A2780 CpR (cisplatin resistant) ovarian cancer cells; assay type: cell-based
Protocol: as §1, §2, §3

cancer cell lines = assay: In vitro potency and selectivity across a variety of cancer indications (WST-1); assay type: cell-based; conditions: 72 hrs
Protocol: as §1
as §2, with “For instance, if 20% of the cells survive incubation in the presence of a compound, then the maximal efficacy of that compound is 100%-20%=80%.” left out

DU145 cells = assay: WST-1 cell viability, DU145 prostate cancer cells; assay type: cell-based
Protocol: as §1, §2, §3

MIA PaCa-2 cells = assay: WST-1 cell viability, MIA PaCa-2 pancreatic cancer cells; assay type: cell-based
Protocol: as §1, §2, §3

NCI-H292 cells = assay: WST-1 cell viability, NCI-H292 lung cancer cells; assay type: cell-based
Protocol: as §1, §2, §3

HCT-116 cells = assay: WST-1 cell viability, HCT-116 colorectal cancer cells; assay type: cell-based
Protocol: as §1, §2, §3

[3] = in mice; cited from earlier work
[4] = chronic treatment in rats, doses up to 8-fold higher; cited from earlier work
[5] = in dogs; cited from earlier work
[6] = cited from earlier work

SMILES: COc1cccc2c1C(=O)c1c(O)c3c(c(O)c1C2=O)C[C@@](O)(C(=O)CO)C[C@@H]3O[C@H]1C[C@H](NC(=O)[C@@H]2CCCN2C(=O)CNC(=O)[C@H](CC(C)C)NC(=O)[C@H](C)NC(=O)CP(=O)(O)O)[C@H](O)[C@H](C)O1 [PhAc-ALGP-Dox, reference compound] (HELM PEPTIDE1{[O=C(CP(=O)(O)O)[*:2]].A.L.G.P.[COc1cccc2c1C(=O)c1c(O)c3c(c(O)c1C2=O)C[C@@](O)(C(=O)CO)C[C@@H]3O[C@H]1C[C@H](N[*:1])[C@H](O)[C@H](C)O1]}$$$$V2.0)
- Tumor growth [1]: significantly reduced tumor growth
- cytotoxicity at 72 h, 100 µM [2]: 31.2%
- IC50 (HME-1 cells): > 100 µM

SMILES: COc1cccc2c1C(=O)c1c(O)c3c(c(O)c1C2=O)C[C@@](O)(C(=O)CO)C[C@@H]3O[C@H]1C[C@H](NC(=O)[C@@H]2CCCN2C(=O)[C@H](CCCCN)NC(=O)[C@@H]2CCCN2C(=O)[C@H](C)NC(=O)CP(=O)(O)O)[C@H](O)[C@H](C)O1 [PhAc-APKP-Dox] (HELM PEPTIDE1{[O=C(CP(=O)(O)O)[*:2]].A.P.K.P.[COc1cccc2c1C(=O)c1c(O)c3c(c(O)c1C2=O)C[C@@](O)(C(=O)CO)C[C@@H]3O[C@H]1C[C@H](N[*:1])[C@H](O)[C@H](C)O1]}$$$$V2.0)
- SI = HME-1 IC50/cancer IC50 (A2058 cells; A2058 (Melanoma) vs HME-1 (Table 3)): 3.69
- IC50 (A2058 cells; A2058 (Melanoma), 72 hrs, WST-1 (Table 1), read-out: Absolute IC50): 4.9 µM
- Maximal efficacy, cytotoxicity (%) at 100 μM (A2058 cells; A2058 (Melanoma), 72 hrs, WST-1 (Table 2)): 96.27%
- SI = HME-1 IC50/cancer IC50 (MDA-MB-231 cells; MDA-MB-231 (TNBC) vs HME-1 (Table 3)): 8.49
- IC50 (MDA-MB-231 cells; MDA-MB-231 (TNBC), 72 hrs, WST-1 (Table 1), read-out: Absolute IC50): 2.13 µM
- Maximal efficacy, cytotoxicity (%) at 100 μM (MDA-MB-231 cells; MDA-MB-231 (TNBC), 72 hrs, WST-1 (Table 2)): 89.12%
- SI = HME-1 IC50/cancer IC50 (MDA-MB-468 cells; MDA-MB-468 (TNBC) vs HME-1 (Table 3)): 4.02
- IC50 (MDA-MB-468 cells; MDA-MB-468 (TNBC), 72 hrs, WST-1 (Table 1), read-out: Absolute IC50): 4.49 µM
- Maximal efficacy, cytotoxicity (%) at 100 μM (MDA-MB-468 cells; MDA-MB-468 (TNBC), 72 hrs, WST-1 (Table 2)): 91.83%
- SI = HME-1 IC50/cancer IC50 (U-87 MG cells; U-87 MG (GBM) vs HME-1 (Table 3)): 1.46
- IC50 (U-87 MG cells; U-87 MG (GBM), 72 hrs, WST-1 (Table 1), read-out: Absolute IC50): 12.4 µM
- Maximal efficacy, cytotoxicity (%) at 100 μM (U-87 MG cells; U-87 MG (GBM), 72 hrs, WST-1 (Table 2)): 88.38%
- SI = HME-1 IC50/cancer IC50 (LS 174T cells; LS 174T (CrC) vs HME-1 (Table 3)): 1.23
- IC50 (LS 174T cells; LS 174T (CrC), 72 hrs, WST-1 (Table 1), read-out: Absolute IC50): 14.7 µM
- Maximal efficacy, cytotoxicity (%) at 100 μM (LS 174T cells; LS 174T (CrC), 72 hrs, WST-1 (Table 2)): 53.72%
- SI = HME-1 IC50/cancer IC50 (A2780 cells; A2780 (OvC) vs HME-1 (Table 3)): 21.13
- IC50 (A2780 cells; A2780 (OvC), 72 hrs, WST-1 (Table 1), read-out: Absolute IC50): 0.86 µM
- Maximal efficacy, cytotoxicity (%) at 100 μM (A2780 cells; A2780 (OvC), 72 hrs, WST-1 (Table 2)): 87.34%
- SI = HME-1 IC50/cancer IC50 (NCI-1299 cells; NCI-1299 (NSCLC) vs HME-1 (Table 3)): 1.72
- IC50 (NCI-1299 cells; NCI-1299 (NSCLC), 72 hrs, WST-1 (Table 1), read-out: Absolute IC50): 10.5 µM
- Maximal efficacy, cytotoxicity (%) at 100 μM (NCI-1299 cells; NCI-1299 (NSCLC), 72 hrs, WST-1 (Table 2)): 75.52%
- SI = HME-1 IC50/cancer IC50 (A-172 cells; A-172 (GBM) vs HME-1 (Table 3)): 0.49
- IC50 (A-172 cells; A-172 (GBM), 72 hrs, WST-1 (Table 1), read-out: Absolute IC50): 36.9 µM
- Maximal efficacy, cytotoxicity (%) at 100 μM (A-172 cells; A-172 (GBM), 72 hrs, WST-1 (Table 2)): 91.93%
- SI = HME-1 IC50/cancer IC50 (A2780 Cp cells; A2780 Cp (OvC) vs HME-1 (Table 3)): 1.62
- Maximal efficacy, cytotoxicity (%) at 100 μM (A2780 Cp cells; A2780 Cp (OvC), 72 hrs, WST-1 (Table 2)): 74.61%
- IC50 (A2780 Cp cells; A2780 Cp (OvC, cisplatin resistant), 72 hrs, WST-1 (Table 1), read-out: Absolute IC50): 11.2 µM
- Potency range against cancer cells (cancer cell lines): within the micromolar range
- SI = HME-1 IC50/cancer IC50 (DU145 cells; DU145 (PrC) vs HME-1 (Table 3)): 2.02
- IC50 (DU145 cells; DU145 (PrC), 72 hrs, WST-1 (Table 1), read-out: Absolute IC50): 8.93 µM
- Maximal efficacy, cytotoxicity (%) at 100 μM (DU145 cells; DU145 (PrC), 72 hrs, WST-1 (Table 2)): 91.93%
- cytotoxicity at 72 h, 100 µM [2]: 81.5%
- SI = HME-1 IC50/cancer IC50 (HME-1 cells; HME-1 normal cells against themselves (Table 3)): 1.00
- IC50 (HME-1 cells): 18.1 µM
- SI = HME-1 IC50/cancer IC50 (MIA PaCa-2 cells; MIA PaCa-2 (PaC) vs HME-1 (Table 3)): 0.40
- IC50 (MIA PaCa-2 cells; MIA PaCa-2 (PaC), 72 hrs, WST-1 (Table 1), read-out: Absolute IC50): 45.7 µM
- Maximal efficacy, cytotoxicity (%) at 100 μM (MIA PaCa-2 cells; MIA PaCa-2 (PaC), 72 hrs, WST-1 (Table 2)): 77.65%
- SI = HME-1 IC50/cancer IC50 (NCI-H292 cells; NCI-H292 (NSCLC) vs HME-1 (Table 3)): 0.70
- IC50 (NCI-H292 cells; NCI-H292 (NSCLC), 72 hrs, WST-1 (Table 1), read-out: Absolute IC50): 25.9 µM
- Maximal efficacy, cytotoxicity (%) at 100 μM (NCI-H292 cells; NCI-H292 (NSCLC), 72 hrs, WST-1 (Table 2)): 63.26%
- SI = HME-1 IC50/cancer IC50 (HCT-116 cells; HCT-116 (CrC) vs HME-1 (Table 3)): 1.47
- IC50 (HCT-116 cells; HCT-116 (CrC), 72 hrs, WST-1 (Table 1), read-out: Absolute IC50): 12.3 µM
- Maximal efficacy, cytotoxicity (%) at 100 μM (HCT-116 cells; HCT-116 (CrC), 72 hrs, WST-1 (Table 2)): 81.05%

SMILES: COc1cccc2c1C(=O)c1c(O)c3c(c(O)c1C2=O)CC(O)(C(=O)CO)CC3OC1CC(NC(=O)C(CC(C)C)NC(=O)C(C)NC(=O)C(CC(C)C)NC(=O)CCNC(=O)CCC(=O)O)C(O)C(C)O1 [Suc-βALAL-dox, N-succinyl-beta-alanyl-L-leucyl-L-alanyl-L-leucyl-doxorubicin]
- Times less toxic compared with unconjugated doxorubicin [3]: about 5 times
- Cardiotoxicity compared with Dox [4]: significantly less cardiotoxic
- Times less toxic compared with unconjugated doxorubicin [5]: 3 times
- Clinical benefit, share of evaluable patients ([6]; phase I clinical study (Delord et al., unpublished)): 59%
- Cardiac adverse events ([6]; phase I clinical study, even at very high cumulative doses (2750 mg/m^2)): No drug-related, severe cardiac adverse events were reported
- Dose at which myelotoxicity occurred compared with free doxorubicin ([6]; phase I clinical study): three times higher doses
